According to US11272709B2, “Amidine substituted benzoyl derivatives useful as herbicides” (Syngenta Participations AG, priority 2018, dated 2022):

Columns and labels:
Type in all cases: in vivo
Conditions in all cases: evaluated after 13 days
[1] = tested on: Amaranthus retoflexus (AMARE); experiment: Post-emergence herbicidal glasshouse test, Amaranthus retoflexus (AMARE)
Procedure: (§1) Seeds of a variety of test species are sown in standard soil in pots (Lolium perenne (LOLPE), Amaranthus retoflexus (AMARE), Abutilon theophrasti (ABUTH), Setaria faberi (SETFA), Echinochloa crus-galli (ECHCG), Ipomoea hederacea (IPOHE)). After cultivation for one day (pre-emergence) or after 8 days cultivation (post-emergence) under controlled conditions in a glasshouse (at 24/16° C., day/night; 14 hours light; 65% humidity), the plants are sprayed with an aqueous spray solution derived from the formulation of the technical active ingredient in acetone/water (50:50) solution containing 0.5% Tween 20 (polyoxyethelyene sorbitan monolaurate, CAS RN 9005-64-5). Compounds are applied at 500 g/h unless otherwise indicated. The test plants are then grown in a glasshouse under controlled conditions in a glasshouse (at 24/16° C., day/night; 14 hours light; 65% humidity) and watered twice daily. After 13 days for pre and post-emergence, the test is evaluated for the percentage damage caused to the plant. The biological activities are shown in the following table on a five point scale (5=80-100%; 4=60-79%; 3=40-59%; 2=20-39%; 1=0-19%).

[2] = tested on: Abutilon theophrasti (ABUTH); experiment: Pre-emergence herbicidal glasshouse test, Abutilon theophrasti (ABUTH)
Procedure: as §1

[3] = tested on: Ipomoea hederacea (IPOHE); experiment: Post-emergence herbicidal glasshouse test, Ipomoea hederacea (IPOHE)
Procedure: as §1

[4] = tested on: Ipomoea hederacea (IPOHE); experiment: Pre-emergence herbicidal glasshouse test, Ipomoea hederacea (IPOHE)
Procedure: as §1

[5] = tested on: Abutilon theophrasti (ABUTH); experiment: Post-emergence herbicidal glasshouse test, Abutilon theophrasti (ABUTH)
Procedure: as §1

[6] = tested on: Echinochloa crus-galli (ECHCG); experiment: Post-emergence herbicidal glasshouse test, Echinochloa crus-galli (ECHCG)
Procedure: as §1

[7] = tested on: Echinochloa crus-galli (ECHCG); experiment: Pre-emergence herbicidal glasshouse test, Echinochloa crus-galli (ECHCG)
Procedure: as §1

Setaria faberi (SETFA) [8] = experiment: Post-emergence herbicidal glasshouse test, Setaria faberi (SETFA)
Procedure: as §1

[9] = tested on: Amaranthus retoflexus (AMARE); experiment: Pre-emergence herbicidal glasshouse test, Amaranthus retoflexus (AMARE)
Procedure: as §1

Setaria faberi (SETFA) [10] = experiment: Pre-emergence herbicidal glasshouse test, Setaria faberi (SETFA)
Procedure: as §1

SMILES: CN(/C=N/c1c(C(F)(F)F)ccc(C(=O)Nc2nnnn2C)c1Cl)CC(F)(F)F [Compound 1.130, 2-chloro-N-(1-methyltetrazol-5-yl)-3-[(E)-[methyl(2,2,2-trifluoroethyl)amino]methyleneamino]-4-(trifluoromethyl)benzamide]
- POST Application AMARE, percentage damage (five point scale) ([1]; 500 g/h): 5 (5=80-100%)
- PRE Application ABUTH, percentage damage (five point scale) ([2]; 500 g/h): 5 (5=80-100%)
- POST Application IPOHE, percentage damage (five point scale) ([3]; 500 g/h): 5 (5=80-100%)
- PRE Application IPOHE, percentage damage (five point scale) ([4]; 500 g/h): 5 (5=80-100%)
- POST Application ABUTH, percentage damage (five point scale) ([5]; 500 g/h): 5 (5=80-100%)
- POST Application ECHCG, percentage damage (five point scale) ([6]; 500 g/h): 5 (5=80-100%)
- PRE Application ECHCG, percentage damage (five point scale) ([7]; 500 g/h): 5 (5=80-100%)
- POST Application SETFA, percentage damage (five point scale) (Setaria faberi (SETFA) [8]; 500 g/h): 5 (5=80-100%)
- PRE Application AMARE, percentage damage (five point scale) ([9]; 500 g/h): 5 (5=80-100%)
- PRE Application SETFA, percentage damage (five point scale) (Setaria faberi (SETFA) [10]; 500 g/h): 5 (5=80-100%)

SMILES: CCN(C)C=Nc1c(S(C)(=O)=O)ccc(C(=O)Nc2nnc(C)o2)c1C [Compound 2.027]
- POST Application AMARE, percentage damage (five point scale) ([1]; 500 g/h): 5 (5=80-100%)
- PRE Application ABUTH, percentage damage (five point scale) ([2]; 500 g/h): 5 (5=80-100%)
- POST Application IPOHE, percentage damage (five point scale) ([3]; 500 g/h): 5 (5=80-100%)
- PRE Application IPOHE, percentage damage (five point scale) ([4]; 500 g/h): 4 (4=60-79%)
- POST Application ABUTH, percentage damage (five point scale) ([5]; 500 g/h): 5 (5=80-100%)
- POST Application ECHCG, percentage damage (five point scale) ([6]; 500 g/h): 5 (5=80-100%)
- PRE Application ECHCG, percentage damage (five point scale) ([7]; 500 g/h): 5 (5=80-100%)
- POST Application SETFA, percentage damage (five point scale) (Setaria faberi (SETFA) [8]; 500 g/h): 5 (5=80-100%)
- PRE Application AMARE, percentage damage (five point scale) ([9]; 500 g/h): 5 (5=80-100%)
- PRE Application SETFA, percentage damage (five point scale) (Setaria faberi (SETFA) [10]; 500 g/h): 5 (5=80-100%)

SMILES: CN(C)C(=Nc1c(C(F)(F)F)ccc(C(=O)Nc2nnnn2C)c1Cl)C(F)(F)F [Compound 1.139]
- POST Application AMARE, percentage damage (five point scale) ([1]; 500 g/h): 5 (5=80-100%)
- PRE Application ABUTH, percentage damage (five point scale) ([2]; 500 g/h): 5 (5=80-100%)
- POST Application IPOHE, percentage damage (five point scale) ([3]; 500 g/h): 4 (4=60-79%)
- PRE Application IPOHE, percentage damage (five point scale) ([4]; 500 g/h): 5 (5=80-100%)
- POST Application ABUTH, percentage damage (five point scale) ([5]; 500 g/h): 5 (5=80-100%)
- POST Application ECHCG, percentage damage (five point scale) ([6]; 500 g/h): 5 (5=80-100%)
- PRE Application ECHCG, percentage damage (five point scale) ([7]; 500 g/h): 5 (5=80-100%)
- POST Application SETFA, percentage damage (five point scale) (Setaria faberi (SETFA) [8]; 500 g/h): 5 (5=80-100%)
- PRE Application AMARE, percentage damage (five point scale) ([9]; 500 g/h): 5 (5=80-100%)
- PRE Application SETFA, percentage damage (five point scale) (Setaria faberi (SETFA) [10]; 500 g/h): 5 (5=80-100%)

SMILES: Cc1nnc(NC(=O)c2ccc(C(F)(F)F)c(N=CN3CCCC3)c2Cl)o1 [Compound 2.132]
- POST Application AMARE, percentage damage (five point scale) ([1]; 500 g/h): 5 (5=80-100%)
- PRE Application ABUTH, percentage damage (five point scale) ([2]; 500 g/h): 5 (5=80-100%)
- POST Application IPOHE, percentage damage (five point scale) ([3]; 500 g/h): 5 (5=80-100%)
- PRE Application IPOHE, percentage damage (five point scale) ([4]; 500 g/h): 5 (5=80-100%)
- POST Application ABUTH, percentage damage (five point scale) ([5]; 500 g/h): 5 (5=80-100%)
- POST Application ECHCG, percentage damage (five point scale) ([6]; 500 g/h): 5 (5=80-100%)
- PRE Application ECHCG, percentage damage (five point scale) ([7]; 500 g/h): 5 (5=80-100%)
- POST Application SETFA, percentage damage (five point scale) (Setaria faberi (SETFA) [8]; 500 g/h): 5 (5=80-100%)
- PRE Application AMARE, percentage damage (five point scale) ([9]; 500 g/h): 5 (5=80-100%)
- PRE Application SETFA, percentage damage (five point scale) (Setaria faberi (SETFA) [10]; 500 g/h): 5 (5=80-100%)

SMILES: Cc1nnc(NC(=O)c2ccc(S(C)(=O)=O)c(N=CN(C)C(C)C)c2C)o1 [Compound 2.144]
- POST Application AMARE, percentage damage (five point scale) ([1]; 500 g/h): 5 (5=80-100%)
- PRE Application ABUTH, percentage damage (five point scale) ([2]; 500 g/h): 5 (5=80-100%)
- POST Application IPOHE, percentage damage (five point scale) ([3]; 500 g/h): 4 (4=60-79%)
- PRE Application IPOHE, percentage damage (five point scale) ([4]; 500 g/h): 3 (3=40-59%)
- POST Application ABUTH, percentage damage (five point scale) ([5]; 500 g/h): 5 (5=80-100%)
- POST Application ECHCG, percentage damage (five point scale) ([6]; 500 g/h): 5 (5=80-100%)
- PRE Application ECHCG, percentage damage (five point scale) ([7]; 500 g/h): 5 (5=80-100%)
- POST Application SETFA, percentage damage (five point scale) (Setaria faberi (SETFA) [8]; 500 g/h): 5 (5=80-100%)
- PRE Application AMARE, percentage damage (five point scale) ([9]; 500 g/h): 5 (5=80-100%)
- PRE Application SETFA, percentage damage (five point scale) (Setaria faberi (SETFA) [10]; 500 g/h): 5 (5=80-100%)

SMILES: CN(C=Nc1c(S(C)(=O)=O)ccc(C(=O)Nc2nnnn2C)c1Cl)CC(F)(F)F [Compound 1.142]
- POST Application AMARE, percentage damage (five point scale) ([1]; applied at 250 g/ha): 5 (5=80-100%)
- PRE Application ABUTH, percentage damage (five point scale) ([2]; applied at 250 g/ha): 5 (5=80-100%)
- POST Application IPOHE, percentage damage (five point scale) ([3]; applied at 250 g/ha): 5 (5=80-100%)
- PRE Application IPOHE, percentage damage (five point scale) ([4]; applied at 250 g/ha): 4 (4=60-79%)
- POST Application ABUTH, percentage damage (five point scale) ([5]; applied at 250 g/ha): 5 (5=80-100%)
- POST Application ECHCG, percentage damage (five point scale) ([6]; applied at 250 g/ha): 5 (5=80-100%)
- PRE Application ECHCG, percentage damage (five point scale) ([7]; applied at 250 g/ha): 5 (5=80-100%)
- POST Application SETFA, percentage damage (five point scale) (Setaria faberi (SETFA) [8]; applied at 250 g/ha): 5 (5=80-100%)
- PRE Application AMARE, percentage damage (five point scale) ([9]; applied at 250 g/ha): 5 (5=80-100%)
- PRE Application SETFA, percentage damage (five point scale) (Setaria faberi (SETFA) [10]; applied at 250 g/ha): 5 (5=80-100%)
